In US9340577B2, “HLA binding motifs and peptides and their uses” (priority 1992, dated 2016):
No end group written: not given here.

Legend:
Test in all cases: biochemical
Type in all cases: binding
[1] = target: HLA-A1 (A*0101) (Homo sapiens, UniProt P04439, A114D/A174V/A182V/D101N/D185E/E176A/E190D/L180R/Q94H/R68K/S129P/T187R/V100A/V91M/W191G)
[2] = target: A*2601 (Homo sapiens, UniProt P04439, A114D/A173T/A270S/D101N/D185E/E277Q/E87N/F33Y/G231S/I121R/I218V/K168Q/L180W/L300P/L318F/P208A/P217A/Q86R/Q94H/R138Q/S129P/T187R/T323A/T345S/V100A/V358M)
[3] = target: A*2902 (Homo sapiens, UniProt P04439, A270S/D101N/D185E/E176V/E277Q/E87Q/F33T/G231S/H175R/I121M/I218V/I322F/K168Q/L300P/L318F/M331R/P208A/P217A/Q86L/T323A/T345S/V100A/V358M)
[4] = target: A*3002 (Homo sapiens, UniProt P04439, D101N/D140H/D185E/E176R/F33S/G80R/H175R/K168Q/Q94H/R138E/R41S/V100E)
Sequence of A*3002 (P04439 whole entry, looked up, the tested form may be a part, stated change not applied): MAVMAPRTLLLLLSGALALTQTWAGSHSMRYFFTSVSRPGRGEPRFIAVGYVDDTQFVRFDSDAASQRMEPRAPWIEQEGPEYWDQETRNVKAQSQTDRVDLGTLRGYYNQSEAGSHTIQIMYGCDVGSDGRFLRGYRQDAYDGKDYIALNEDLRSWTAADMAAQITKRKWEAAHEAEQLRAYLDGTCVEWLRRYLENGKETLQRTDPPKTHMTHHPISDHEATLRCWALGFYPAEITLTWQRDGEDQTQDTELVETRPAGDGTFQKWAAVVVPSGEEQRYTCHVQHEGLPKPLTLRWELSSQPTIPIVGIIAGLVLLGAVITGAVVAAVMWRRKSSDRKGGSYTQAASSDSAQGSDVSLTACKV

NSLVKHHMY [Peptide 9015.0033]
IC50 [1]: 2030 nM
IC50 [2]: > 20000 nM
IC50 [3]: 326 nM
IC50 [4]: 451 nM

DLADQLIHLY [Peptide 9015.0184]
IC50 [1]: 958 nM
IC50 [2]: 6.2 nM
IC50 [3]: 9790 nM

LYDQLIHLY [Peptide 9018.0028]
IC50 [1]: 177 nM
IC50 [2]: 69 nM
IC50 [3]: 249 nM
IC50 [4]: 21 nM

ISWTYIDDY [Peptide 86.0135]
IC50 [2]: > 20000 nM
IC50 [3]: 2490 nM
IC50 [4]: 9.4 nM

GTEELRSLY [Peptide 9015.0010]
IC50 [2]: 666 nM
IC50 [3]: 4830 nM
IC50 [4]: 51 nM

CQDKILEHY [Peptide 1580.23]
IC50 [1]: 55 nM
IC50 [2]: > 20000 nM
IC50 [3]: > 20000 nM
IC50 [4]: 2600 nM

HMDREKHPEY [Peptide 9018.0007]
IC50 [1]: 24 nM
IC50 [2]: 2760 nM
IC50 [3]: > 20000 nM
IC50 [4]: 648 nM

LADQLIHLY [Peptide 9015.0038]
IC50 [1]: 4 nM
IC50 [2]: 6090 nM
IC50 [3]: 1330 nM
IC50 [4]: 96 nM

GLDDQLIHLY [Peptide 9018.0024]
IC50 [1]: 11 nM
IC50 [2]: 1420 nM
IC50 [3]: 432 nM
IC50 [4]: 56 nM

RFALNPGLL [Peptide 1605.01]
IC50 [1]: > 20000 nM
IC50 [2]: > 20000 nM
IC50 [3]: > 20000 nM
IC50 [4]: 98 nM

SSDAALYWY [Peptide 1593.08]
IC50 [1]: 34 nM
IC50 [2]: > 20000 nM
IC50 [3]: 1970 nM
IC50 [4]: 799 nM

ISNYTDTIY [Peptide 9015.0007]
IC50 [1]: 104 nM
IC50 [2]: 6100 nM
IC50 [3]: 141 nM
IC50 [4]: 36 nM

ITDDSEIAY [Peptide 1593.04]
IC50 [1]: 20 nM
IC50 [2]: 7370 nM
IC50 [3]: 1440 nM
IC50 [4]: 3100 nM

WKSLVKHHMY [Peptide 9015.0177]
IC50 [1]: > 20000 nM
IC50 [2]: > 20000 nM
IC50 [3]: > 20000 nM
IC50 [4]: 148 nM

YTDGPGTRY [Peptide 9018.0002]
IC50 [1]: 0.39 nM
IC50 [2]: 28 nM
IC50 [3]: 65 nM
IC50 [4]: 63 nM

MWKFDSRLAL [Peptide 1605.17]
IC50 [1]: > 20000 nM
IC50 [2]: > 20000 nM
IC50 [3]: > 20000 nM

LTDDSDIAY [Peptide 1580.11]
IC50 [2]: 3920 nM
IC50 [3]: 4770 nM
IC50 [4]: 5440 nM

YTPGPGTRY [Peptide 9015.0027]
IC50 [2]: 11 nM
IC50 [3]: 1280 nM
IC50 [4]: 9150 nM

SFDPIPIHY [Peptide 9015.0002]
IC50 [1]: 315 nM
IC50 [2]: 2650 nM
IC50 [3]: 27 nM

HTAREKHPEY [Peptide 9018.0006]
IC50 [2]: 15 nM
IC50 [3]: 4460 nM

KSDIVTLTY [Peptide 1593.07]
IC50 [1]: 62 nM
IC50 [2]: > 20000 nM
IC50 [3]: 3170 nM

YTPGPGVRY [Peptide 9015.0026]
IC50 [2]: 27 nM
IC50 [3]: 1350 nM
IC50 [4]: 7640 nM

LFDQLIHMYY [Peptide 9018.0030]
IC50 [2]: 2410 nM
IC50 [3]: 12 nM
IC50 [4]: 65 nM

VMDDSEIAY [Peptide 1580.07]
IC50 [2]: > 20000 nM
IC50 [3]: 95 nM
IC50 [4]: 2550 nM

SSNTKANILY [Peptide 1580.08]
IC50 [1]: 290 nM
IC50 [2]: 579 nM
IC50 [4]: 33 nM

LSEMVQWAY [Peptide 1580.10]
IC50 [1]: 6.9 nM
IC50 [2]: > 20000 nM
IC50 [3]: 633 nM

VTDDSEIAY [Peptide 1593.13]
IC50 [1]: 22 nM
IC50 [2]: > 20000 nM
IC50 [4]: 10100 nM

ITKIGPENPY [Peptide 9015.0162]
IC50 [2]: 985 nM
IC50 [3]: > 20000 nM

RQEILDLWVY [Peptide 9015.0174]
IC50 [1]: 7250 nM
IC50 [2]: 8720 nM
IC50 [4]: 76 nM

LADQLIHMYY [Peptide 9015.0187]
IC50 [1]: 2.5 nM
IC50 [2]: 1780 nM
IC50 [4]: 769 nM

ISERILSTY [Peptide 1522.03]
IC50 [1]: 31 nM
IC50 [2]: 4100 nM
IC50 [3]: > 20000 nM

VSRRANGWFY [Peptide 9015.0179]
IC50 [2]: > 20000 nM
IC50 [3]: 5580 nM
IC50 [4]: 5.2 nM

GLADQLIHLY [Peptide 9015.0185]
IC50 [1]: 5520 nM
IC50 [2]: 426 nM
IC50 [4]: 9.2 nM
